Read-outs that look alike come from different tables or passages of the source.
What was measured:
[1] = target: T1, human A1 adenosine receptor (Homo sapiens, UniProt P30542); assay: radioligand competition, [3H]DPCPX, CHO-A1 membranes; assay type: binding
T1 construct: gene ADORA1; full-length receptor
T1 sequence (P30542 1-326): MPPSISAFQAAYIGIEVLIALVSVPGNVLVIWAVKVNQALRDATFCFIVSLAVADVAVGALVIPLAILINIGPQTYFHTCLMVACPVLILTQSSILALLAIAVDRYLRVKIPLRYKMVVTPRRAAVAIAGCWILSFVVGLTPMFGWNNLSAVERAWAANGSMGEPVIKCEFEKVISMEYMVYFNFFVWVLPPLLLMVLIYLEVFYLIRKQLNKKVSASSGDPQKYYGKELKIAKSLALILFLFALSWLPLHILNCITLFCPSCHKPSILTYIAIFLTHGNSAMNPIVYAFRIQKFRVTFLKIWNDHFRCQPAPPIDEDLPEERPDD
Excerpt: radioligand competition, [3H]DPCPX, CHO-A1 membranes on human A1 adenosine receptor

[2] = target: T1, human A1 adenosine receptor; assay: as above; assay type: binding; remark: listed apart in the source
[3] = target: T2, human A2B adenosine receptor (Homo sapiens, UniProt P29275); assay: radioligand competition, [3H]DPCPX, HEK-293-A2B membranes; assay type: binding
T2 construct: gene ADORA2B; full-length receptor; membranes of HEK-293-A2B cells (Euroscreen)
T2 sequence (P29275 1-332): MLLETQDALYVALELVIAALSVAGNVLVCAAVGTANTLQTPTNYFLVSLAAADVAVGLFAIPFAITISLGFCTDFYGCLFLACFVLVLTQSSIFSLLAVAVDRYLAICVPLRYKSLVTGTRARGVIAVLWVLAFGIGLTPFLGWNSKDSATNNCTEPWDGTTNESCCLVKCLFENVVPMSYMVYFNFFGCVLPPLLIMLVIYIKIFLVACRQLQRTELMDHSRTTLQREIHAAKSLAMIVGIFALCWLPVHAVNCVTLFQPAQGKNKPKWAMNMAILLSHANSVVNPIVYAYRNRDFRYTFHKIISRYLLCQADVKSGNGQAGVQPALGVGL
Excerpt: radioligand competition, [3H]DPCPX, HEK-293-A2B membranes on human A2B adenosine receptor

[4] = target: T3, human A2A adenosine receptor (Homo sapiens, UniProt P29274); assay: radioligand competition, [3H]ZM241385, HeLa-A2A membranes; assay type: binding
T3 construct: gene ADORA2A; full-length receptor; membranes of HeLa-A2A cells
Excerpt: radioligand competition, [3H]ZM241385, HeLa-A2A membranes on human A2A adenosine receptor

[5] = target: T4, human A3 adenosine receptor (Homo sapiens, UniProt P0DMS8); assay: radioligand competition, [3H]NECA, HeLa-A3 membranes; assay type: binding
T4 construct: gene ADORA3; full-length receptor
T4 sequence (P0DMS8 1-318): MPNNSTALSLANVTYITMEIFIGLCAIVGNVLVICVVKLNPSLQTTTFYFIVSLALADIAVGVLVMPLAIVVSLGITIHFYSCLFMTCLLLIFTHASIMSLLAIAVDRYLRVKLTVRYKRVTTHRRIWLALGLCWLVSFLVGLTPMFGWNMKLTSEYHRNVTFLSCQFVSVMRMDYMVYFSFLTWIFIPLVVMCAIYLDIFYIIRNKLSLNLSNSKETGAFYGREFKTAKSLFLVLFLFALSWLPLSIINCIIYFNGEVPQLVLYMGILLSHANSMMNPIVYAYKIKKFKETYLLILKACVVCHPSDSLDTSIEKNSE
Excerpt: radioligand competition, [3H]NECA, HeLa-A3 membranes on human A3 adenosine receptor

[6] = target: T4, human A3 adenosine receptor; assay: cAMP enzyme immunoassay, antagonism of NECA, CHO-A3 cells; assay type: cell-based; conditions: read-out: Potency (pKB) / A3 (converted)
Excerpt: cAMP enzyme immunoassay, antagonism of NECA, CHO-A3 cells on human A3 adenosine receptor

[7] = target: T1, human A1 adenosine receptor; assay: cAMP enzyme immunoassay, antagonism of NECA, CHO-A1 cells; assay type: cell-based; conditions: read-out: Potency (pKB) / A1 (converted)
Excerpt: cAMP enzyme immunoassay, antagonism of NECA, CHO-A1 cells on human A1 adenosine receptor

T3 sequence (P29274 whole entry): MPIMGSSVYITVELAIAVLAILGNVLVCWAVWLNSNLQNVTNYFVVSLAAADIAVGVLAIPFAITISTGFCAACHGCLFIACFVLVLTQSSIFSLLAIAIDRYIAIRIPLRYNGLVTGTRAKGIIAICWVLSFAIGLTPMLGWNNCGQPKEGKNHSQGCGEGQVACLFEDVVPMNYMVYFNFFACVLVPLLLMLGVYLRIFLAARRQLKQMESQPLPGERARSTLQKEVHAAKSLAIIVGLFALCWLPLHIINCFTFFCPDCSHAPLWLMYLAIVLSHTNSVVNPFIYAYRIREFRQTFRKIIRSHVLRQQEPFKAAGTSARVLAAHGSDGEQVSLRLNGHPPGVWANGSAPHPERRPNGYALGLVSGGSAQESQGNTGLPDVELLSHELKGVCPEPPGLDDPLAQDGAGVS

| SMILES | Ki ([2]; read-out: A1 (converted)) | Ki [3] | Ki [4] | Ki [5] | other results |
| --- | --- | --- | --- | --- | --- |
| Cn1cnc2c(N3CCOCC3)nc(-c3ccccc3Cl)nc21 [3a, 4-(2-(2-Chlorophenyl)-9-methyl-9H-purin-6-yl)morpholine] |  |  |  |  | inhibition at 10 µM [1]: 36 ± 1% |
| COc1ccccc1-c1nc(N2CCOCC2)c2ncn(C)c2n1 [3b, 4-(2-(2-Methoxyphenyl)-9-methyl-9H-purin-6-yl)morpholine] |  |  |  |  | inhibition at 10 µM [1]: 22 ± 1% |
| Cn1cnc2c(N3CCOCC3)nc(-c3ccccc3O)nc21 [3c, 2-(9-Methyl-6-morpholino-9H-purin-2-yl)phenol] | 309 nM | 2000 nM | 339 nM |  |  |
| Cn1cnc2c(N3CCOCC3)nc(-c3cccc(Cl)c3)nc21 [3d, 4-(2-(3-Chlorophenyl)-9-methyl-9H-purin-6-yl)morpholine] | 158 nM |  |  |  |  |
| Cn1cnc2c(N3CCOCC3)nc(-c3cccc(O)c3)nc21 [3e, 3-(9-Methyl-6-morpholino-9H-purin-2-yl)phenol] | 692 nM |  |  |  |  |
| Cn1cnc2c(N3CCOCC3)nc(-c3ccc(Cl)cc3)nc21 [3f, 4-(2-(4-Chlorophenyl)-9-methyl-9H-purin-6-yl)morpholine] |  |  |  |  | inhibition at 10 µM [1]: 37 ± 4% |
| Cn1cnc2c(N3CCOCC3)nc(-c3cccc(O)c3O)nc21 [3g, 3-(9-Methyl-6-morpholino-9H-purin-2-yl)benzene-1,2-diol] |  |  |  |  | inhibition at 10 µM [1]: 33 ± 0.3% |
| Cn1cnc2c(N3CCOCC3)nc(-c3cc(Cl)ccc3Cl)nc21 [3h, 4-(2-(2,5-Dichlorophenyl)-9-methyl-9H-purin-6-yl)morpholine] |  |  |  |  | inhibition at 10 µM [1]: 41 ± 2% |
| Cn1cnc2c(N3CCOCC3)nc(-c3cc(O)ccc3O)nc21 [3i, 2-(9-Methyl-6-morpholino-9H-purin-2-yl)benzene-1,4-diol] | 437 nM | 479 nM | 562 nM |  |  |
| COc1ccc(O)c(-c2nc(N3CCOCC3)c3ncn(C)c3n2)c1 [3j, 4-Methoxy-2-(9-methyl-6-morpholino-9H-purin-2-yl)phenol] | 525 nM | 1660 nM | 1230 nM |  |  |
| Cn1cnc2c(N3CCOCC3)nc(-c3cc(Cl)ccc3O)nc21 [3k, 4-Chloro-2-(9-methyl-6-morpholino-9H-purin-2-yl)phenol] | 123 nM |  | 708 nM |  |  |
| COc1ccc(F)c(-c2nc(N3CCOCC3)c3ncn(C)c3n2)c1 [3l, 4-(2-(2-Fluoro-5-methoxyphenyl)-9-methyl-9H-purin-6-yl)morpholine] |  |  |  | 5250 nM |  |

Now from value to molecule, other results behind:

| Ki ([2]; read-out: A1 (converted)) | Ki [3] | Ki [4] | Ki [5] | SMILES | other results |
| --- | --- | --- | --- | --- | --- |
| 525 nM |  |  |  | Cn1cnc2c(N3CCOCC3)nc(-c3cc(F)ccc3F)nc21 [3m, 4-(2-(2,5-Difluorophenyl)-9-methyl-9H-purin-6-yl)morpholine] |  |
| 64.6 nM | 138 nM | 107 nM | 257 nM | Oc1ccccc1-c1nc(N2CCOCC2)c2nc[nH]c2n1 [3n, 2-(6-Morpholino-9H-purin-2-yl)phenol] |  |
| 17.8 nM | 75.9 nM | 46.8 nM | 39.8 nM | Clc1cccc(-c2nc(N3CCOCC3)c3nc[nH]c3n2)c1 [3o, 4-(2-(3-Chlorophenyl)-9H-purin-6-yl)morpholine] |  |
| 32.4 nM |  | 550 nM | 468 nM | Oc1cccc(-c2nc(N3CCOCC3)c3nc[nH]c3n2)c1 [3p, 3-(6-Morpholino-9H-purin-2-yl)phenol] |  |
| 95.5 nM |  |  | 33.9 nM | Clc1ccc(-c2nc(N3CCOCC3)c3nc[nH]c3n2)cc1 [3q, 4-(2-(4-Chlorophenyl)-9H-purin-6-yl)morpholine] |  |
|  |  |  | 70.8 nM | Clc1ccc(-c2nc(N3CCOCC3)c3nc[nH]c3n2)cc1Cl [3r, 4-(2-(3,4-Dichlorophenyl)-9H-purin-6-yl)morpholine] |  |
|  |  |  | 955 nM | FC(F)(F)c1cc(-c2nc(N3CCOCC3)c3nc[nH]c3n2)ccc1Cl [3s, 4-(2-(4-Chloro-3-(trifluoromethyl)phenyl)-9H-purin-6-yl)morpholine] |  |
| 1070 nM |  |  | 69.2 nM | Clc1ccc(Cl)c(-c2nc(N3CCOCC3)c3nc[nH]c3n2)c1 [3t, 4-(2-(2,5-Dichlorophenyl)-9H-purin-6-yl)morpholine] |  |
| 89.1 nM | 617 nM |  |  | Oc1ccc(Cl)cc1-c1nc(N2CCOCC2)c2nc[nH]c2n1 [3u] |  |
|  | 398 nM |  | 14.8 nM | COc1ccc(F)c(-c2nc(N3CCOCC3)c3nc[nH]c3n2)c1 [3v, 4-(2-(2-Fluoro-5-methoxyphenyl)-9H-purin-6-yl)morpholine] | Ki ([2]; read-out: pKi (converted)): > 10000 nM; Kb [6]: 5.75 nM |
| 5.89 nM | 36.3 nM | 70.8 nM | 23.4 nM | Fc1ccc(F)c(-c2nc(N3CCOCC3)c3nc[nH]c3n2)c1 [3x, 4-(2-(2,5-Difluorophenyl)-9H-purin-6-yl)morpholine] | Kb [7]: 5.62 nM |
